Patent US20090047221A1 (NIPRI LIMITED, priority 2004, published 2009)

Test system: cancer cell line MDA-MB-468
Assay: Combination index with known cancer drugs against proliferation (Calcusyn software)
Assay type: cell-based
Conditions: MDA-MB-468
Text: A combination index of less than 0.1 indicates very strong synergy; a combination index of 0.1 to 0.3 indicates strong synergism; a combination index of 0.3 to 0.7 indicates synergism; a combination index of 0.7 to 0.85 indicates moderate synergism; a combination index of 0.85 to 0.9 indicates slight synergism and a combination index of 0.9 to 1.1 indicates only very slight synergism, said combination being close to merely additive.
The combination index may be calculated using calcusyn software.
Evidence of synergy was determined by calculation of the combination index using Calcusyn software.
The MTT assay was used initially to determine the anti-proliferative activity of the test compounds. In the MTT assay a yellow thiazolyl blue tetrazolium bromide salt (MTT) is reduced, in metabolically active cells, to form insoluble purple formazan crystals which are solubilised by the addition of dimethyl sulphoxide (DMSO). Absorbance readings can then be determined spectrophotometrically and a relationship established between control untreated cells and drug treated cells enabling the quantification of anti-proliferative changes as a result of drug treatment (Mosmann, 1983).
Wells containing medium only were used as blanks. Following the attachment period, cells were treated with appropriate drug concentrations (20 μl added per well). 40 mg/ml stock drug solutions, in DMSO, were stored at −20° C. and on the day of drug treatment working solutions of 4 mg/ml were prepared in medium which was further diluted to achieve final drug dilution volumes of 20 μl. Initial screening was determined over a concentration range of 1-200 μg/ml. For potent compounds the assay was repeated over a narrower concentration range to determine accurate IC50 values. Cells were exposed to drug for 96 h continual exposure (37° C., 5% CO2). Following the 96 h incubation, 50 μl MTT solution (1 g MTT/500 ml PBS) was added per well and the plates were further incubated for 4 h (37° C., 5% CO2). After incubation the MTT and medium was removed from the wells and 100 μl DMSO added per well. Plates were agitated on an orbital mixer platform (Stuart Scientific) for 10 minutes. Absorbance was measured at 570 nm on a Biotrak II (Amersham Bioscience) plate reader. IC50 values were calculated comparing control and drug treated cells.

CC1(C)Cc2ccc(C(=O)N[C@@H](Cc3ccccc3)C(=O)O)c(O)c2C(=O)O1 [ALM-74, L-Phenyl Alanine Amide of Compound ALM-73]
Combination Index (Cisplatin 1 × 10^−2 mol/L, ALM-74 0.1 μg/ml): 0.006 | Combination Index (Cisplatin 1 × 10^−2 mol/L, ALM-74 0.5 μg/ml): 0.008 | Combination Index (Cisplatin 1 × 10^−2 mol/L, ALM-74 1.0 μg/ml): 0.082 | Combination Index (Cisplatin 1 × 10^−2 mol/L, ALM-74 5.0 μg/ml): 0.130 | Combination Index (Cisplatin 1 × 10^−3 mol/L, ALM-74 0.1 μg/ml): No | Combination Index (Cisplatin 1 × 10^−3 mol/L, ALM-74 0.5 μg/ml): No | Combination Index (Cisplatin 1 × 10^−3 mol/L, ALM-74 1.0 μg/ml): 0.039 | Combination Index (Cisplatin 1 × 10^−3 mol/L, ALM-74 5.0 μg/ml): 0.346 | Combination Index (Cisplatin 1 × 10^−4 mol/L, ALM-74 0.1 μg/ml): No | Combination Index (Cisplatin 1 × 10^−4 mol/L, ALM-74 0.5 μg/ml): No | Combination Index (Cisplatin 1 × 10^−4 mol/L, ALM-74 1.0 μg/ml): 0.061 | Combination Index (Cisplatin 1 × 10^−4 mol/L, ALM-74 5.0 μg/ml): 1.031 | Combination Index (Cisplatin 1 × 10^−5 mol/L, ALM-74 0.1 μg/ml): No | Combination Index (Cisplatin 1 × 10^−5 mol/L, ALM-74 0.5 μg/ml): No | Combination Index (Cisplatin 1 × 10^−5 mol/L, ALM-74 1.0 μg/ml): 0.069 | Combination Index (Cisplatin 1 × 10^−5 mol/L, ALM-74 5.0 μg/ml): 0.778 | Combination Index (Cisplatin 1 × 10^−6 mol/L, ALM-74 0.1 μg/ml): No | Combination Index (Cisplatin 1 × 10^−6 mol/L, ALM-74 0.5 μg/ml): No | Combination Index (Cisplatin 1 × 10^−6 mol/L, ALM-74 1.0 μg/ml): 0.083 | Combination Index (Cisplatin 1 × 10^−6 mol/L, ALM-74 5.0 μg/ml): No | Combination Index (Cisplatin 1 × 10^−7 mol/L, ALM-74 0.1 μg/ml): No | Combination Index (Cisplatin 1 × 10^−7 mol/L, ALM-74 0.5 μg/ml): No | Combination Index (Cisplatin 1 × 10^−7 mol/L, ALM-74 1.0 μg/ml): 0.092 | Combination Index (Cisplatin 1 × 10^−7 mol/L, ALM-74 5.0 μg/ml): No | Combination Index (Cisplatin 1 × 10^−8 mol/L, ALM-74 0.1 μg/ml): No | Combination Index (Cisplatin 1 × 10^−8 mol/L, ALM-74 0.5 μg/ml): No | Combination Index (Cisplatin 1 × 10^−8 mol/L, ALM-74 1.0 μg/ml): 0.091 | Combination Index (Cisplatin 1 × 10^−8 mol/L, ALM-74 5.0 μg/ml): No | Combination Index (Cisplatin 1 × 10^−9 mol/L, ALM-74 0.1 μg/ml): 0.895 | Combination Index (Cisplatin 1 × 10^−9 mol/L, ALM-74 0.5 μg/ml): No | Combination Index (Cisplatin 1 × 10^−9 mol/L, ALM-74 1.0 μg/ml): 0.090 | Combination Index (Cisplatin 1 × 10^−9 mol/L, ALM-74 5.0 μg/ml): No | Combination Index (Doxorubicin 1 × 10^−4 mol/L, ALM-74 0.1 μg/ml): No | Combination Index (Doxorubicin 1 × 10^−4 mol/L, ALM-74 0.5 μg/ml): 0.277 | Combination Index (Doxorubicin 1 × 10^−4 mol/L, ALM-74 1.0 μg/ml): No | Combination Index (Doxorubicin 1 × 10^−4 mol/L, ALM-74 5.0 μg/ml): No | Combination Index (Doxorubicin 1 × 10^−5 mol/L, ALM-74 0.1 μg/ml): 0.001 | Combination Index (Doxorubicin 1 × 10^−5 mol/L, ALM-74 0.5 μg/ml): 0.007 | Combination Index (Doxorubicin 1 × 10^−5 mol/L, ALM-74 1.0 μg/ml): 0.376 | Combination Index (Doxorubicin 1 × 10^−5 mol/L, ALM-74 5.0 μg/ml): 1.069 | Combination Index (Etoposide 1 × 10^−4 mol/L, ALM-74 0.1 μg/ml): 0.355 | Combination Index (Etoposide 1 × 10^−4 mol/L, ALM-74 0.5 μg/ml): 0.402 | Combination Index (Etoposide 1 × 10^−4 mol/L, ALM-74 1.0 μg/ml): 0.307 | Combination Index (Etoposide 1 × 10^−4 mol/L, ALM-74 5.0 μg/ml): 0.349 | Combination Index (Etoposide 1 × 10^−5 mol/L, ALM-74 0.1 μg/ml): No | Combination Index (Etoposide 1 × 10^−5 mol/L, ALM-74 0.5 μg/ml): 0.613 | Combination Index (Etoposide 1 × 10^−5 mol/L, ALM-74 1.0 μg/ml): 0.031 | Combination Index (Etoposide 1 × 10^−5 mol/L, ALM-74 5.0 μg/ml): 0.053 | Combination Index (Etoposide 1 × 10^−6 mol/L, ALM-74 0.1 μg/ml): No | Combination Index (Etoposide 1 × 10^−6 mol/L, ALM-74 0.5 μg/ml): No | Combination Index (Etoposide 1 × 10^−6 mol/L, ALM-74 1.0 μg/ml): 0.015 | Combination Index (Etoposide 1 × 10^−6 mol/L, ALM-74 5.0 μg/ml): 0.200 | Combination Index (Etoposide 1 × 10^−7 mol/L, ALM-74 0.1 μg/ml): No | Combination Index (Etoposide 1 × 10^−7 mol/L, ALM-74 0.5 μg/ml): No | Combination Index (Etoposide 1 × 10^−7 mol/L, ALM-74 1.0 μg/ml): 0.016 | Combination Index (Etoposide 1 × 10^−7 mol/L, ALM-74 5.0 μg/ml): 0.231 | Combination Index (Etoposide 1 × 10^−8 mol/L, ALM-74 0.1 μg/ml): No | Combination Index (Etoposide 1 × 10^−8 mol/L, ALM-74 0.5 μg/ml): No | Combination Index (Etoposide 1 × 10^−8 mol/L, ALM-74 1.0 μg/ml): 0.016 | Combination Index (Etoposide 1 × 10^−8 mol/L, ALM-74 5.0 μg/ml): 0.261 | Combination Index (Etoposide 1 × 10^−9 mol/L, ALM-74 0.1 μg/ml): No | Combination Index (Etoposide 1 × 10^−9 mol/L, ALM-74 0.5 μg/ml): No | Combination Index (Etoposide 1 × 10^−9 mol/L, ALM-74 1.0 μg/ml): 0.019 | Combination Index (Etoposide 1 × 10^−9 mol/L, ALM-74 5.0 μg/ml): 0.251 | Combination Index (Etoposide 1 × 10^−10 mol/L, ALM-74 0.1 μg/ml): 0.724 | Combination Index (Etoposide 1 × 10^−10 mol/L, ALM-74 0.5 μg/ml): No | Combination Index (Etoposide 1 × 10^−10 mol/L, ALM-74 1.0 μg/ml): 0.022 | Combination Index (Etoposide 1 × 10^−10 mol/L, ALM-74 5.0 μg/ml): 0.265 | Combination Index (Irinotecan 1 × 10^−3 mol/L, ALM-74 0.1 μg/ml): 0.916 | Combination Index (Irinotecan 1 × 10^−3 mol/L, ALM-74 0.5 μg/ml): 0.121 | Combination Index (Irinotecan 1 × 10^−3 mol/L, ALM-74 1.0 μg/ml): No | Combination Index (Irinotecan 1 × 10^−3 mol/L, ALM-74 5.0 μg/ml): No | Combination Index (Irinotecan 1 × 10^−4 mol/L, ALM-74 0.1 μg/ml): 0.189 | Combination Index (Irinotecan 1 × 10^−4 mol/L, ALM-74 0.5 μg/ml): 0.302 | Combination Index (Irinotecan 1 × 10^−4 mol/L, ALM-74 1.0 μg/ml): 0.051 | Combination Index (Irinotecan 1 × 10^−4 mol/L, ALM-74 5.0 μg/ml): 0.051 | Combination Index (Irinotecan 1 × 10^−5 mol/L, ALM-74 0.1 μg/ml): No | Combination Index (Irinotecan 1 × 10^−5 mol/L, ALM-74 0.5 μg/ml): No | Combination Index (Irinotecan 1 × 10^−5 mol/L, ALM-74 1.0 μg/ml): 0.025 | Combination Index (Irinotecan 1 × 10^−5 mol/L, ALM-74 5.0 μg/ml): 0.616 | Combination Index (Irinotecan 1 × 10^−6 mol/L, ALM-74 0.1 μg/ml): 0.518 | Combination Index (Irinotecan 1 × 10^−6 mol/L, ALM-74 0.5 μg/ml): No | Combination Index (Irinotecan 1 × 10^−6 mol/L, ALM-74 1.0 μg/ml): 0.055 | Combination Index (Irinotecan 1 × 10^−6 mol/L, ALM-74 5.0 μg/ml): 0.589 | Combination Index (Irinotecan 1 × 10^−7 mol/L, ALM-74 0.1 μg/ml): 0.067 | Combination Index (Irinotecan 1 × 10^−7 mol/L, ALM-74 0.5 μg/ml): No | Combination Index (Irinotecan 1 × 10^−7 mol/L, ALM-74 1.0 μg/ml): 0.054 | Combination Index (Irinotecan 1 × 10^−7 mol/L, ALM-74 5.0 μg/ml): 0.726 | Combination Index (Irinotecan 1 × 10^−8 mol/L, ALM-74 0.1 μg/ml): 0.046 | Combination Index (Irinotecan 1 × 10^−8 mol/L, ALM-74 0.5 μg/ml): No | Combination Index (Irinotecan 1 × 10^−8 mol/L, ALM-74 1.0 μg/ml): 0.066 | Combination Index (Irinotecan 1 × 10^−8 mol/L, ALM-74 5.0 μg/ml): 0.895 | Combination Index (Irinotecan 1 × 10^−9 mol/L, ALM-74 0.1 μg/ml): 0.049 | Combination Index (Irinotecan 1 × 10^−9 mol/L, ALM-74 0.5 μg/ml): No | Combination Index (Irinotecan 1 × 10^−9 mol/L, ALM-74 1.0 μg/ml): 0.078 | Combination Index (Irinotecan 1 × 10^−9 mol/L, ALM-74 5.0 μg/ml): 0.973 | Combination Index (Irinotecan 1 × 10^−10 mol/L, ALM-74 0.1 μg/ml): 0.22 | Combination Index (Irinotecan 1 × 10^−10 mol/L, ALM-74 0.5 μg/ml): No | Combination Index (Irinotecan 1 × 10^−10 mol/L, ALM-74 1.0 μg/ml): 0.086 | Combination Index (Irinotecan 1 × 10^−10 mol/L, ALM-74 5.0 μg/ml): 0.720
